Measured values reported in ChEMBL document CHEMBL5107956, “Natural products from mangrove sediments-derived microbes: Structural diversity, bioactivities, biosynthesis, and total synthesis” (Eur J Med Chem, 2022).
In brackets after ≈: the same amount, converted by molar mass.

What was measured:
[1] = system: Proteus vulgaris; test: Antibacterial activity against Proteus vulgaris MTCC 7299 assessed as bacterial growth inhibition incubated for 48 to 72 hrs by agar plate diffusion assay; format: functional; details: time 48-72 hrs
[2] = system: HL-60; test: Cytotoxicity against human HL-60 cells assessed as cell growth inhibition measured after 72 hrs by MTT assay; format: functional, cell-based; details: HL-60, 72 h
[3] = system: NCI-H1975; test: Cytotoxicity against human NCI-H1975 cells assessed as cell growth inhibition measured after 72 hrs by MTT assay; format: functional, cell-based; details: NCI-H1975, 72 h
[4] = system: ACHN; test: Antiproliferative activity against human ACHN cells assessed as cell growth inhibition measured after 72 hrs by CCK-8 assay; format: functional, cell-based
[5] = system: HL-60; test: Antiproliferative activity against human HL-60 cells assessed as cell growth inhibition measured after 72 hrs by CCK-8 assay; format: functional, cell-based; details: HL-60, 72 h
[6] = system: K562; test: Antiproliferative activity against human K562 cells assessed as cell growth inhibition measured after 72 hrs by CCK-8 assay; format: functional, cell-based; details: K562, 72 h
[7] = system: HCT-116; test: Cytotoxicity against human HCT-116 cells assessed as cell growth inhibition; format: functional
[8] = system: LOX IMVI; test: Cytotoxicity against human LOX IMVI cells assessed as cell growth inhibition; format: functional
[9] = system: HOP-92; test: Cytotoxicity against human HOP-92 cells assessed as cell growth inhibition; format: functional
[10] = system: OVCAR-3; test: Cytotoxicity against human OVCAR-3 cells assessed as cell growth inhibition; format: functional
[11] = system: PC-3; test: Cytotoxicity against human PC-3 cells assessed as cell growth inhibition; format: functional
[12] = system: HL-60; test: Antiproliferative activity against human HL-60 cells assessed as cell growth inhibition by MTT assay; format: functional, cell-based
[13] = system: P388; test: Cytotoxicity against mouse P388 cells assessed as cell growth inhibition by MTT assay; format: functional, cell-based
[14] = target: Phosphotyrosine-protein phosphatase PTPB (Mycobacterium tuberculosis, UniProt P96830); test: Inhibition of N-terminal His6-tagged Mycobacterium tuberculosis H37Rv PTPB using 6,8-difluoromethylumbelliferyl phosphate as substrate incubated for 30 mins by fluorescence based analysis
Sequence of Phosphotyrosine-protein phosphatase PTPB (P96830 whole entry): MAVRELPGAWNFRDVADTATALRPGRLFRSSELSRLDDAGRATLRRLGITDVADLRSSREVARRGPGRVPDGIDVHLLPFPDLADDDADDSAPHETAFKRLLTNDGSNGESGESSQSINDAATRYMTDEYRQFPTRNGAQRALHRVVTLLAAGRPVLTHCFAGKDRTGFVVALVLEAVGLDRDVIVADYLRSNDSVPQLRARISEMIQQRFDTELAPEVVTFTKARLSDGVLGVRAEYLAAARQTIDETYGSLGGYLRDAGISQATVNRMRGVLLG

[15] = system: RAW264.7; test: Antiinflammatory activity against LPS-induced mouse RAW264.7 cells assessed as inhibition of NO production measured after 24 hrs […]; format: functional, cell-based; details: RAW264.7, 24 h
[16] = system: MCF7; test: Cytotoxicity against human MCF7 cells assessed as cell growth inhibition; format: functional, cell-based
[17] = system: SF-268; test: Cytotoxicity against human SF-268 cells assessed as cell growth inhibition; format: functional, cell-based
[18] = system: NCI-H460; test: Cytotoxicity against human NCI-H460 cells assessed as cell growth inhibition; format: functional, cell-based
[19] = system: Staphylococcus aureus; test: Antibacterial activity against Staphylococcus aureus assessed as bacterial growth inhibition measured after 24 hrs by optical density based analysis; format: functional
[20] = system: Limimaricola hongkongensis; test: Antibacterial activity against Limimaricola hongkongensis assessed as bacterial growth inhibition measured after 24 hrs by optical density based analysis; format: functional
[21] = system: Influenza A virus; test: Antiviral activity against Influenza A virus H1N1 by CPE inhibition assay; format: functional, organism-based
[22] = system: Pseudopestalotiopsis theae; test: Antifungal activity against Pestalotiopsis theae assessed as fungal cell growth inhibition; format: functional; details: read-out: ED50 (the source's name)
[23] = system: Candida albicans; test: Antifungal activity against Candida albicans assessed as fungal growth inhibition; format: functional
[24] = system: Trypanosoma brucei brucei; test: Antitrypanosomal activity against Trypanosoma brucei brucei GUTat3.1 assessed as parasite growth inhibition measured after 24 hrs by alamar blue staining based analysis; format: functional, organism-based; details: GUTat3.1, 24 h
[25] = Cytotoxicity against human ACC-MESO-1 cells assessed as cell growth inhibition by MTT assay; format: functional, cell-based
[26] = system: HeLa; test: Cytotoxicity against human HeLa cells assessed as cell growth inhibition by MTT assay; format: functional, cell-based
[27] = system: A549; test: Cytotoxicity against human A549 cells assessed as cell growth inhibition measured after 72 hrs by MTT assay; format: functional, cell-based; details: A549, 72 h
[28] = system: Bel-7402; test: Cytotoxicity against human Bel-7402 cells assessed as cell growth inhibition measured after 72 hrs by MTT assay; format: functional, cell-based; details: Bel-7402, 72 h
[29] = system: SF-268; test: Cytotoxicity against human SF-268 cells assessed as cell growth inhibition incubated for 48 hrs by MTT assay; format: functional, cell-based; details: SF-268, 48 h
[30] = system: MCF7; test: Cytotoxicity against human MCF7 cells assessed as cell growth inhibition incubated for 48 hrs by MTT assay; format: functional, cell-based; details: MCF7, 48 h
[31] = system: NCI-H460; test: Cytotoxicity against human NCI-H460 cells assessed as cell growth inhibition incubated for 48 hrs by MTT assay; format: functional, cell-based; details: NCI-H460, 48 h
[32] = system: SMMC-7721; test: Antiproliferative activity against human SMMC-7721 cells assessed as cell growth inhibition; format: functional, cell-based
[33] = target: Acetylcholinesterase (Homo sapiens, UniProt P22303); test: Inhibition of AChE (unknown origin) using acetylthiocholine iodide as substrate measured after 30 mins by Ellman's method
Sequence of Acetylcholinesterase (P22303 whole entry): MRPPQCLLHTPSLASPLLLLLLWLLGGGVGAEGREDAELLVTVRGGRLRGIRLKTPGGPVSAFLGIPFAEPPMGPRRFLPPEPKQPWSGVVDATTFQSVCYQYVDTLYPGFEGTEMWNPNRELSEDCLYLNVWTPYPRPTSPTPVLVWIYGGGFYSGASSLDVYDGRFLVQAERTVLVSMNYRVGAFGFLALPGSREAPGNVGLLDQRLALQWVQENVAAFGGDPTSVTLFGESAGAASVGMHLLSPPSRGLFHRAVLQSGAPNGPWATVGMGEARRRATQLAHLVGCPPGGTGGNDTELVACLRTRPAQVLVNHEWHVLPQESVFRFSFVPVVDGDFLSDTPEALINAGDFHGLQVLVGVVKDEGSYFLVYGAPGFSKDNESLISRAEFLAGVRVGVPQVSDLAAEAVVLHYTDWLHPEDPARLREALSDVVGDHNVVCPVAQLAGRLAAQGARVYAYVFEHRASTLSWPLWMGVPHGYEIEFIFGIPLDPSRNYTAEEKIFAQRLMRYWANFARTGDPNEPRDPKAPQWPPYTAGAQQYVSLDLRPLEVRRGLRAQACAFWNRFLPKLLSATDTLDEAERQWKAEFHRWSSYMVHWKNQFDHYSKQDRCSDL

[34] = system: Salmonella enterica; test: Antibacterial activity against Salmonella enterica ATCC 6539 assessed as bacterial cell growth inhibition measured after 24 hrs by Bactiter-glo assay; format: functional

Compound `CCCOC(=O)c1ccccc1C(=O)OC(C)CC` (stereo not given) has an MIC [1] of 4 µg/mL (≈ 15.1 µM).
`C/C=C/C1=CC(=O)[C@@]2(C(=O)c3c(OC)cc(OC)cc3C(=O)OC)O[C@H]2O1` gave an IC50 [2] of 3.7 µM and an IC50 [3] of 3.7 µM.
Work on `C/C=C/[C@H](O[C@H]1O[C@@H](CO)[C@H](O)[C@@H](O)[C@@H]1O)[C@H](C)/C=C(C)/C=C/C/C(C)=C/Cc1nc(OC)c(OC)c(O)c1C` yielded an IC50 [4] of 2.3 µM, an IC50 [5] of 1.3 µM and an IC50 [6] of 5.5 µM.
For `C[C@@]12OC(=O)[C@]1([C@@H](O)[C@@H]1C=CCCC1)NC(=O)[C@@H]2CCCl` [MARIZOMIB], the GI50 [7] was 0.035 µM, the GI50 [8] was < 0.011 µM and the GI50 [9] was < 0.011 µM. For the same compound, the GI50 [10] was < 0.011 µM and the GI50 [11] was < 0.011 µM.
For `C=CC(C)(C)c1[nH]c2ccccc2c1/C=C1\NC(=O)C2(CC(C)C=CC2CCc2c(O)cc(CC=C(C)C)c(O)c2C=O)NC1=O` (stereo not given), the IC50 [12] was 4.8 µM and the IC50 [13] was 1.83 µM.
Work on `CC(C)[C@@H](C)/C=C/[C@@H](C)[C@@]1(C)C[C@H]2C3=C4[C@@H](C=C5C[C@@H](O)CC[C@]5(C)[C@H]4CC[C@@]31C)[C@H](C(=O)O)[C@H]2C(=O)O` yielded an IC50 [14] of 15.1 µM and an IC50 [15] of 4.5 µM.
`CC(C)[C@@H](C)/C=C/[C@@H](C)[C@H]1CC[C@H]2C3=CC(=O)N(CCO)C3=CC[C@]12C` showed an IC50 [16] of 7.5 µg/mL (≈ 21 µM), an IC50 [17] of 7.9 µg/mL (≈ 22.1 µM) and an IC50 [18] of 7.8 µg/mL (≈ 21.8 µM).
Compound `CC(O)[C@H](NC(=O)c1cccc(NC=O)c1O)C(=O)O[C@@H](C)[C@H](OC(=O)Cc1ccccc1)[C@@H](C)C(=O)O` (stereo not given in full) has an MIC [19] of 32 µg/mL (≈ 60.3 µM) and an MIC [20] of 8 µg/mL (≈ 15.1 µM).
With `CC[C@@H](C)C1=C2NC(=O)[C@@](O)(C/C(=C\C=O)OC)C(=O)N2[C@H](C(C)C)C(=O)N1` the IC50 [21] was 50 µM.
With `CC(=C\C(=O)O)/C=C(\C)CCCCCC[C@H]1OC(=O)[C@@H]1CO` the EC50 [22] was 42.3 µg/mL (≈ 136 µM).
For `CCC(C)C1OC(=O)/C=C/C=C/C=C/C=C/C=C/CC(O)CC(O)CC(O)CC(O)CC(O)CC(O)CC(O)CC(O)/C=C/C1C` (stereo not given), the MIC [23] was 25 µM (≈ 16.3 µg/mL).
In the case of `CC(=O)/C(=C\c1ccc(O)cc1)OC(Cc1c[nH]c2ccccc12)C(=O)O` (stereo not given), the IC50 [24] is reported as 5.21 µM.
`CC(/C=C/C1CC1)=C\[C@@H]1[C@@H](OC(=O)CC(C)C)[C@](C)(O)[C@@H]2[C@H]3O[C@H]3CCN12` showed an IC50 [25] of 39 µM and an IC50 [26] of 29 µM.
`C=CC(C)(C)c1[nH]c2c(CC=C(C)C)cc(CC=C(C)C)cc2c1C[C@@H]1NC(=O)C(=C)NC1=O` showed an IC50 [27] of 1.43 µM and an IC50 [28] of 4.2 µM.
Work on `CC(C)[C@@H](C)/C=C/[C@@H](C)[C@H]1CC[C@H]2C3=CC(=O)N(CCO)[C@@]3(O)CC[C@]12C` yielded an IC50 [29] of 13 µg/mL (≈ 34.6 µM), an IC50 [30] of 18.1 µg/mL (≈ 48.2 µM) and an IC50 [31] of 23.5 µg/mL (≈ 62.6 µM).
`CC(=C\C(=O)O)/C=C(\C)CC(C)/C=C/CC[C@H]1OC(=O)[C@@H]1CO` (stereo not given in full) showed an EC50 [22] of 38.1 µg/mL (≈ 118 µM).
`Cc1ccc(OC(=O)CCN)cc1` gave an IC50 [32] of 22 µg/mL (≈ 123 µM).
`C[C@H]1CN2C(=O)[C@]34Cc5c([nH]c6c7c(ccc56)OC(C)(C)CC7=O)C(C)(C)[C@@H]3C[C@@]2(C1)C(=O)N4` gave an IC50 [33] of 58 µM.
For `Cc1cc2c3c(c1C)C(C)(C)CCn3c(=O)c(=O)n2C[C@H](O)[C@H](O)[C@H](O)CO`, the MIC [34] was 12.4 µM (≈ 4.87 µg/mL).
